Test results reported in US8785457B2 (Cellzome Limited, priority 2009, dated 2014).
Like-named read-outs stand apart in the source and are kept apart here.

What was measured:
mTOR = biological target: T1, mTOR (Homo sapiens, UniProt P42345); test: mTOR kinobeads assay (competitive binding in Jurkat cell lysate, immunodetection)
T1 construct: endogenous in cells; host or cells: Jurkat, clone E6-1 (ATCC TIB-152) cell lysate
Method in brief: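 IC50 derived from dose-response curves of mTOR captured on immobilized phenylmorpholin-chromen beads, detected by antibody dot blot with infrared fluorescence.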

PI3 Kgamma (PI3 Kg) = biological target: T2, PI3 Kgamma (PI3 Kg) (Homo sapiens, UniProt P48736); test: kinobeads assay, PI3Kgamma; assay type: binding
T2 construct: endogenous in cells; host or cells: cell lysate
Method in brief: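 IC50s are fitted to per-kinase dose-response curves. Kinases retained on phenylmorpholin-chromen affinity beads are read by multiplexed immunodetection after elution. Compound, added at a range of concentrations straight into cell lysate, competes for this bead capture.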

[1] = test system: S6RP serine-240/244 phosphorylation; test: In vitro Phospho-S6 cellular assay (pS6RP S240/244) in HEK293T/17 cells; assay type: cell-based; conditions: Homo sapiens, 2 hours, read-out: pS6 IC50
Method in brief: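 Compounds were tested at eight concentrations on adhered HEK293T/17 cells for 2 h at 37 °C (2% FCS, 0.1% DMSO), at 80,000 cells/well for pAkt S473 and 40,000 for pS6RP S240/244. Lysates were captured on phospho-specific antibody MSD plates with Sulfo-Tag detection. Values came from nonlinear variable-slope regression.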

[2] = Further Kinobeads Data, read-out: mTor
[3] = Further Kinobeads Data, read-out: PI3Kg
[4] = kinobeads assay, Table 4, read-out: Inhibition values (IC50) mTor
[5] = kinobeads assay, Table 6, read-out: Inhibition values (IC50) mTOR
[6] = kinobeads assay, Table 6, read-out: Inhibition values (IC50) PI3Kg

T2 sequence (P48736 whole entry): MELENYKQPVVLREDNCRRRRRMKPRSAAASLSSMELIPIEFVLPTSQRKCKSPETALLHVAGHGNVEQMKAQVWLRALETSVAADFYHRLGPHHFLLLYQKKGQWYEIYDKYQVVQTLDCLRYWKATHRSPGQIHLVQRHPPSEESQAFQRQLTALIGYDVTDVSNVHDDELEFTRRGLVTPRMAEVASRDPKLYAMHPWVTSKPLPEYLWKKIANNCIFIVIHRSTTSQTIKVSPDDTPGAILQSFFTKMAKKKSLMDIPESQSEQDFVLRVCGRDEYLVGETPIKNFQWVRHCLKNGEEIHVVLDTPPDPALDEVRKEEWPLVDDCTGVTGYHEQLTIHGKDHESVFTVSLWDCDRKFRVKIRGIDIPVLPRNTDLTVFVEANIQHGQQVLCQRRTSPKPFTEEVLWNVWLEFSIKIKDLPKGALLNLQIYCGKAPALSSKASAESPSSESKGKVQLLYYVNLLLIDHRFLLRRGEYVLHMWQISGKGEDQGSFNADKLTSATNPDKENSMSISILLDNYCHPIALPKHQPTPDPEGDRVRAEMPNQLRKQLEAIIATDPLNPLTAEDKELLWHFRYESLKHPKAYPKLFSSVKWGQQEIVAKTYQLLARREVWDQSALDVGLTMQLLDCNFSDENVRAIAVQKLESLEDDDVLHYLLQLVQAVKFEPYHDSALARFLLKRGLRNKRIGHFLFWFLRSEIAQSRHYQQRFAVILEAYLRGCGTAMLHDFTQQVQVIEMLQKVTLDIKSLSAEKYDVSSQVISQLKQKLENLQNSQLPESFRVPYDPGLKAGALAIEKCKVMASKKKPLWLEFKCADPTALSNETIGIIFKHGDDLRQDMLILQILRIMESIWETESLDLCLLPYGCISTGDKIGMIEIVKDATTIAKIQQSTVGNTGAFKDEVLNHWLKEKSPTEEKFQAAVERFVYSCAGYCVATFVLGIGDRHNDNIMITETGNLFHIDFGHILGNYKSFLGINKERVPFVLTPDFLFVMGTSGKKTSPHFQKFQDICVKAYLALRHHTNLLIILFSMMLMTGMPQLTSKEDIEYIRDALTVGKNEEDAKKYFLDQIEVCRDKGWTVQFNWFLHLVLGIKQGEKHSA

| SMILES | IC50 (mTOR; [2]) [nM] | IC50 (PI3 Kgamma (PI3 Kg); [3]) [nM] | IC50 [1] [nM] | IC50 (mTOR; [4]) [nM] | IC50 (mTOR; [5]) [nM] | IC50 (PI3 Kgamma (PI3 Kg); [6]) [nM] |
| --- | --- | --- | --- | --- | --- | --- |
| CCOC(=O)N1Cc2nc(-c3ccc(NC(=O)NCCF)cc3F)nc(N3CCOC[C@@H]3C)c2C1 [Example 168, (S)-ethyl 2-(2-fluoro-4-(3-(2-fluoroethyl)ureido)phenyl)-4-(3-methylmorpholino)-5H-pyrrolo[3,4-d]pyrimidine-6(7H)-carboxylate] | < 100 | > 10000 | 97 |  |  |  |
| COC(=O)N1Cc2nc(-c3ccc(NC(=O)NCCF)cc3F)nc(N3CCOC[C@@H]3C)c2C1 [Example 183, (S)-methyl 2-(2-fluoro-4-(3-(2-fluoroethyl)ureido)phenyl)-4-(3-methylmorpholino)-5H-pyrrolo[3,4-d]pyrimidine-6(7H)-carboxylate] | 100 to 1000 | > 10000 | 60 |  |  |  |
| CC(C)C(=O)N1Cc2nc(-c3ccc(NC(=O)NC4CC4)cc3F)nc(N3CCOC[C@@H]3C)c2C1 [Example 174, (S)-1-cyclopropyl-3-(3-fluoro-4-(6-isobutyryl-4-(3-methylmorpholino)-6,7-dihydro-5H-pyrrolo[3,4-d]pyrimidin-2-yl)phenyl)urea] | < 100 | > 10000 | 545 |  |  |  |
| CCNC(=O)Nc1ccc(-c2nc3c(c(N4CCOC[C@@H]4C)n2)CCN(C(=O)C(C)C)C3)cc1 [Example 57, (S)-1-ethyl-3-(4-(7-isobutyryl-4-(3-methylmorpholino)-5,6,7,8-tetrahydropyrido[3,4-d]pyrimidin-2-yl)phenyl)urea] |  |  | 32 | < 100 | < 100 | > 10000 |
| CCOC(=O)N1Cc2nc(-c3ccc(NC(=O)NC4CC4)cc3F)nc(N3CCOCC3)c2C1 [Example 156, Ethyl 2-(4-(3-cyclopropylureido)-2-fluorophenyl)-4-morpholino-5H-pyrrolo[3,4-d]pyrimidine-6(7H)-carboxylate] | < 100 | > 10000 | 135 |  |  |  |
| CCNC(=O)Nc1ccc(-c2nc3c(c(N4CCOC[C@@H]4C)n2)CCN(CC2CC2)C3)cc1 [Example 37, (S)-1-(4-(7-(cyclopropylmethyl)-4-(3-methylmorpholino)-5,6,7,8-tetrahydropyrido[3,4-d]pyrimidin-2-yl)phenyl)-3-ethylurea] |  |  | 86 | < 100 | < 100 | > 10000 |
| CCOC(=O)N1Cc2nc(-c3ccc(NC(=O)NCCO)cc3F)nc(N3CCOC[C@@H]3C)c2C1 [Example 167, (S)-Ethyl 2-(2-fluoro-4-(3-(2-hydroxyethyl)ureido)phenyl)-4-(3-methylmorpholino)-5H-pyrrolo[3,4-d]pyrimidine-6(7H)-carboxylate] | < 100 | > 10000 | 615 |  |  |  |
| CC(C)NC(=O)N1CCc2c(nc(-c3ccc(NC(=O)NC4CC4)cc3F)nc2N2CCOC[C@@H]2C)C1 [Example 189, (S)-2-(4-(3-cyclopropylureido)-2-fluorophenyl)-N-isopropyl-4-(3-methylmorpholino)-5,6-dihydropyrido[3,4-d]pyrimidine-7(8H)-carboxamide] | < 100 | > 10000 | 133 |  |  |  |
| COC(=O)N1Cc2nc(-c3ccc(NC(=O)NC4CC4)cc3F)nc(N3CCOC[C@@H]3C)c2C1 [Example 146, (S)-methyl 2-(4-(3-cyclopropylureido)-2-fluorophenyl)-4-(3-methylmorpholino)-5H-pyrrolo[3,4-d]pyrimidine-6(7H)-carboxylate] | 100 to 1000 | > 10000 | 96 |  |  |  |
| C[C@@H]1COCCN1c1nc(-c2ccc(NC(=O)NC3CC3)cc2F)nc2c1CN(C=O)C2 [Example 190, (R)-1-cyclopropyl-3-(3-fluoro-4-(6-formyl-4-(3-methylmorpholino)-6,7-dihydro-5H-pyrrolo[3,4-d]pyrimidin-2-yl)phenyl)urea] | < 100 | > 10000 | 351 |  |  |  |
| C[C@H]1COCCN1c1nc(-c2ccc(NC(=O)NC3CC3)cc2)nc2c1CCN(CC(C)(C)C)C2 [Example 41, (S)-1-cyclopropyl-3-(4-(4-(3-methylmorpholino)-7-neopentyl-5,6,7,8-tetrahydropyrido[3,4-d]pyrimidin-2-yl)phenyl)urea] |  |  | 120 | 100 to 1000 | 100 to 1000 | > 10000 |
| C[C@H]1COCCN1c1nc(-c2ccc(NC(=O)NC3CC3)cc2)nc2c1CN(C(=O)C(C)(C)C)C2 [Example 45, (S)-1-cyclopropyl-3-(4-(4-(3-methylmorpholino)-6-pivaloyl-6,7-dihydro-5H-pyrrolo[3,4-d]pyrimidin-2-yl)phenyl)urea] |  |  | 63 | 100 to 1000 | 100 to 1000 | > 10000 |
